The text below walks through data of PMC11045757, “Group 3 medulloblastoma transcriptional networks collapse under domain specific EP300/CBP inhibition” (Nature Communications, 2024).

Where “and” joins values, the source holds several entries; their conditions need not be identical. Equal entries are not always repeated.

Test [1] deals with T1, WDR9(2) (Homo sapiens, UniProt Q9NSI6).
T1 construct: WDR9(2); purchased Eurofins DiscoverX (BROMOscan)
The experiment in a line: BromoScan profiling (DiscoverX). To be noted: read-out: Percent Control WDR9(2). It is filed as binding.

Test [2] has as its target T2, BRD2(1) (Homo sapiens, UniProt P25440).
T2 construct: BRD2(1); purchased Eurofins DiscoverX (BROMOscan)
The test is described as follows: BromoScan profiling (DiscoverX). It is filed as binding. To be noted: read-out: Percent Control BRD2(1).

The target in test [3] is T3, BAZ2B (Homo sapiens, UniProt Q9UIF8).
T3 construct: purchased Eurofins DiscoverX (BROMOscan)
The experiment in a line: BromoScan profiling (DiscoverX). To be noted: read-out: Percent Control BAZ2B. The class given is binding.

In test [4] the target is T4, PCAF (Homo sapiens, UniProt Q92831).
T4 construct: purchased Eurofins DiscoverX (BROMOscan)
The test is described as follows: BromoScan profiling (DiscoverX). It is filed as binding. To be noted: read-out: Percent Control PCAF.

The target of test [5] is T5, BRD9 (Homo sapiens, UniProt Q9H8M2).
T5 construct: purchased Eurofins DiscoverX (BROMOscan)
The test is described as follows: BromoScan profiling (DiscoverX). The class given is binding. To be noted: read-out: Percent Control BRD9.

Test [6] concerns the target T6, EP300 bromodomain (Homo sapiens, UniProt Q09472).
T6 construct: 6xHis (cleaved yes); host or cells: E. coli BL21 (DE3) RIL
T6 sequence (Q09472 1048-1161): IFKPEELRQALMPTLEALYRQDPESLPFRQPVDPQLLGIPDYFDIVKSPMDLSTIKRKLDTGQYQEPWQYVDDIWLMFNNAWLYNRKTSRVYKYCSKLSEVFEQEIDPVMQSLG
The experiment in a line: Differential scanning fluorimetry (DSF) thermal shift. The class given is binding. In outline:
(§1)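 Thermal shift of 5 μM E. coli-expressed bromodomain with 100 μM compound in 50 mM HEPES pH 7.5, 150 mM NaCl, 2 mM DTT, 2% DMSO, 5X SYPRO Orange, quadruplicate. Heated 25→95 °C at 1 °C/min, fluorescence at 610 nm; ΔTm relative to DMSO reference wells.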
For orientation: Differential scanning fluorimetry follows unfolding on heating by fluorescence.

Test [7] deals with T7, BRD4-BD1 (BRD4-1) (Homo sapiens, UniProt O60885).
T7 construct: BRD4-BD1 (residues 44-168); 6xHis (cleaved yes); host or cells: E. coli BL21 (DE3) RIL
Described as above. It is filed as binding. In outline:
as §1

Test [8] addresses T8, BRD4(1) (Homo sapiens, UniProt O60885).
T8 construct: BRD4(1); purchased Eurofins DiscoverX (BROMOscan)
The test is described as follows: BromoScan profiling (DiscoverX). To be noted: read-out: Percent Control BRD4(1). It is filed as binding.

Test [9] has as its target T9, BRD3(2) (Homo sapiens, UniProt Q15059).
T9 construct: BRD3(2); purchased Eurofins DiscoverX (BROMOscan)
The test is described as follows: BromoScan profiling (DiscoverX). The class given is binding. To be noted: read-out: Percent Control BRD3(2).

For test [10], the target named is T10, CECR2 (Homo sapiens, UniProt Q9BXF3).
T10 construct: purchased Eurofins DiscoverX (BROMOscan)
The test is described as follows: BromoScan profiling (DiscoverX). The class given is binding. To be noted: read-out: Percent Control CECR2.

The subject of test [11] is c-MYC in HDMB03 (HDMBO3) cells. The experiment in a line: Western blotting for c-MYC after 6 h treatment. It is filed as cell-based. To be noted: CCS1477 39 nM, A485 400 nM, JQ1 100 nM. An excerpt: Line width indicates strength of known protein-protein interactions. Red indicates proteins involved in control of mRNA transcription/cell cycle, blue indicates proteins involved in RNA metabolism.
Western blotting protocols were as previously described[16],[69]. Briefly, cells growing in culture were lysed for whole-cell lysates using RIPA buffer, or for affinity pulldown using IP-lysis buffer (Pierce Biotechnology) per the manufacturer’s protocol. […] Equal amounts of protein were resolved by Western blotting using 4% to 12% Bis–Tris NuPAGE gels (Thermo Fisher Scientific) prior to transfer and immunoblotting using primary antibodies to EP300 (1:1000, Abcam ab10485), BRD4 (1:1000, Epicypher 13-2003), c-MYC (1:1000, Cell Signaling Technology #5605) or β-Actin (1:1000, Cell Signaling Technology #4967). Secondary antibodies were horseradish peroxidase–conjugated anti-rabbit or anti-mouse (1:5000, Santa Cruz Biotechnology, sc-2357, sc-358914), incubated prior to exposure to enhanced chemiluminescence reagents (GE Amersham). Densitometry was performed using Image Lab v6.1 (BioRad).
(In general: A western blot detects proteins with antibodies after separation by electrophoresis.)

Test [12] has as its target T11, ATAD2A (Homo sapiens, UniProt Q6PL18).
T11 construct: purchased Eurofins DiscoverX (BROMOscan)
The test is described as follows: BromoScan profiling (DiscoverX). It is filed as binding. To be noted: read-out: Percent Control ATAD2A.

Test [13] deals with T12, EP300 (Homo sapiens, UniProt Q09472).
T12 construct: purchased Eurofins DiscoverX (BROMOscan)
The experiment in a line: BromoScan profiling (DiscoverX). To be noted: read-out: Percent Control EP300. The class given is binding.

Test [14] addresses T13, TAF1(2) (Homo sapiens, UniProt P21675).
T13 construct: TAF1(2); purchased Eurofins DiscoverX (BROMOscan)
The experiment in a line: BromoScan profiling (DiscoverX). To be noted: read-out: Percent Control TAF1(2). It is filed as binding.

The target in test [15] is T14, BRD2(2) (Homo sapiens, UniProt P25440).
T14 construct: BRD2(2); purchased Eurofins DiscoverX (BROMOscan)
The test is described as follows: BromoScan profiling (DiscoverX). To be noted: read-out: Percent Control BRD2(2). It is filed as binding.

Test [16] concerns the target T15, TAF1L(2) (Homo sapiens, UniProt Q8IZX4).
T15 construct: TAF1L(2); purchased Eurofins DiscoverX (BROMOscan)
The experiment in a line: BromoScan profiling (DiscoverX). The class given is binding. To be noted: read-out: Percent Control TAF1L(2).

Where [17] appears, read: DSF, 5 μM protein, 100 μM compound, three independent experiments, average ± SD.

T5 sequence (Q9H8M2 whole entry): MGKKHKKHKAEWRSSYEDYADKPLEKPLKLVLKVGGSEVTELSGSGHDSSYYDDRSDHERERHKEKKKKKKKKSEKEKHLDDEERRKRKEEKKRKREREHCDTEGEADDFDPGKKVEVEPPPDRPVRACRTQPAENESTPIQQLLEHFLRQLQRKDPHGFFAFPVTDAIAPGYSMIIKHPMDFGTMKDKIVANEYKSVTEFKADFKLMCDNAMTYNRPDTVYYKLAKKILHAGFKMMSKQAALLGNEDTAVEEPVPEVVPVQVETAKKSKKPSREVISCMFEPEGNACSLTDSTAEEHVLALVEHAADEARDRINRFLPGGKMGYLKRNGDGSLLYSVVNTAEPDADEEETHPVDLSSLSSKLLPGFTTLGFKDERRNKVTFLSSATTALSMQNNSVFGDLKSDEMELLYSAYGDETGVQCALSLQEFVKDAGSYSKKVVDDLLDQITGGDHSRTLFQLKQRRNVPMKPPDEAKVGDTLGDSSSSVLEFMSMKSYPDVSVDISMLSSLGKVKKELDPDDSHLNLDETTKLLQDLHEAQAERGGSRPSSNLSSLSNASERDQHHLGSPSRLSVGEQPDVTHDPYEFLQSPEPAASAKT
T4 sequence (Q92831 whole entry): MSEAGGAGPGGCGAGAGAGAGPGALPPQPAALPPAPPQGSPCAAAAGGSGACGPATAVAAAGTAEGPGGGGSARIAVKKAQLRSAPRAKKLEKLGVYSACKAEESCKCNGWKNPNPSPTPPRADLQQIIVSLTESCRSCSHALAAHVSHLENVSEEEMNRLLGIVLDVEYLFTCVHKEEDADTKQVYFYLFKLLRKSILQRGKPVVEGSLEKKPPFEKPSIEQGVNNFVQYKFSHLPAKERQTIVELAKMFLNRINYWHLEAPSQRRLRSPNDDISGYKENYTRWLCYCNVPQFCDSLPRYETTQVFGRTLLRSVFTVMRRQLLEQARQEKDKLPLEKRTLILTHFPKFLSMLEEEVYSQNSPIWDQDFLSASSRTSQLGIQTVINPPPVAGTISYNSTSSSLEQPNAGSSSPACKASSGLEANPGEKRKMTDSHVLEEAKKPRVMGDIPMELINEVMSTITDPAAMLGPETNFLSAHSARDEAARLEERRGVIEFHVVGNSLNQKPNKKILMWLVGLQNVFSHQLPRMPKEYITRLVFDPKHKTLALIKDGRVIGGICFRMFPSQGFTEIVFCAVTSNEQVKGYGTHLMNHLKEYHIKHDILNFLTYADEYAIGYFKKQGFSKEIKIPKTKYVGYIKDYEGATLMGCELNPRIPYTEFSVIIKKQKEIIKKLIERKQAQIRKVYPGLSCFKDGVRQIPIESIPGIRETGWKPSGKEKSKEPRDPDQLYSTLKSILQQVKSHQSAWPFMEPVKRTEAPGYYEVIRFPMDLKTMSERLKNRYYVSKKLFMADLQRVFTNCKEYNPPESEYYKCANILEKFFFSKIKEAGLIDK
T11 sequence (Q6PL18 whole entry): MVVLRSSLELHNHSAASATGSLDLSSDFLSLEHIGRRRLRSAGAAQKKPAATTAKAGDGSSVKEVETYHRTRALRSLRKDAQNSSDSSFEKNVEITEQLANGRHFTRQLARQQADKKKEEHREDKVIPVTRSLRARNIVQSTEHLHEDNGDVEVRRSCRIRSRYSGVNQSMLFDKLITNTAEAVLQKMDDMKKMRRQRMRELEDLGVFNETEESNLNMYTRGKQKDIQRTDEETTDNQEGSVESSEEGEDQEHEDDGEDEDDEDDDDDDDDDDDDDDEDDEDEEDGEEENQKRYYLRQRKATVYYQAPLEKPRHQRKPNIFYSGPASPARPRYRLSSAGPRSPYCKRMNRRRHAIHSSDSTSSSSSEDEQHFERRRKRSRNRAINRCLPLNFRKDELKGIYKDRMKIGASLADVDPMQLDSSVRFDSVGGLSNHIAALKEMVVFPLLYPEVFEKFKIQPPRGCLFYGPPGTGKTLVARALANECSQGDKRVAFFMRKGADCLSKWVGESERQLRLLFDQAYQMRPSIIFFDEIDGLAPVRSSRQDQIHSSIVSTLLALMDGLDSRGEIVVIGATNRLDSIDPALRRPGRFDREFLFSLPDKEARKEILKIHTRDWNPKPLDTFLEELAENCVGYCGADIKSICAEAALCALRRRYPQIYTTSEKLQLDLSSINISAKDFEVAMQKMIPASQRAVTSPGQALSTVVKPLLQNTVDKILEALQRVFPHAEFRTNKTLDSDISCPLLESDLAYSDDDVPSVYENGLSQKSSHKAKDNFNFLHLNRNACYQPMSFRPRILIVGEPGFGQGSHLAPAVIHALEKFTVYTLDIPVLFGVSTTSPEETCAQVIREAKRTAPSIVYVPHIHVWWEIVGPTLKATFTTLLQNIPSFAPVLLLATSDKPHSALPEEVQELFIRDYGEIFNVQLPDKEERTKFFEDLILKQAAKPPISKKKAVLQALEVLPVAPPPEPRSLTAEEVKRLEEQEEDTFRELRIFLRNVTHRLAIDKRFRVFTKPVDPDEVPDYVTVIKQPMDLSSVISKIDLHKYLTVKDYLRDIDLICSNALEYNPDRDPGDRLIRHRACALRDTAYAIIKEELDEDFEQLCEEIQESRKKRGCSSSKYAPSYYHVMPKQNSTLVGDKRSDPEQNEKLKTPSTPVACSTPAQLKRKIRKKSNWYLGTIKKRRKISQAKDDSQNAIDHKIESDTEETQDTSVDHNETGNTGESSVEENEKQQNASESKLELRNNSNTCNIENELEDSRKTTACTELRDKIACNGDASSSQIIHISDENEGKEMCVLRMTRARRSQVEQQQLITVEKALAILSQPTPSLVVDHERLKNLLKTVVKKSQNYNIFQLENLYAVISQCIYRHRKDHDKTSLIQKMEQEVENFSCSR
T13 sequence (P21675 1519-1656 limits assumed): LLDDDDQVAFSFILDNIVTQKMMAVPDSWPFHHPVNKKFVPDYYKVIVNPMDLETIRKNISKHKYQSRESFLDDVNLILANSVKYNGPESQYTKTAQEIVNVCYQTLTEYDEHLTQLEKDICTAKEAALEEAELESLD
T9 sequence (Q15059 306-416 limits assumed): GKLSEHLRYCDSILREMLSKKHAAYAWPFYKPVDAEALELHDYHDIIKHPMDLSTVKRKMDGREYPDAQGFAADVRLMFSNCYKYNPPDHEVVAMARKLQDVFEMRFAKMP
T10 sequence (Q9BXF3 whole entry): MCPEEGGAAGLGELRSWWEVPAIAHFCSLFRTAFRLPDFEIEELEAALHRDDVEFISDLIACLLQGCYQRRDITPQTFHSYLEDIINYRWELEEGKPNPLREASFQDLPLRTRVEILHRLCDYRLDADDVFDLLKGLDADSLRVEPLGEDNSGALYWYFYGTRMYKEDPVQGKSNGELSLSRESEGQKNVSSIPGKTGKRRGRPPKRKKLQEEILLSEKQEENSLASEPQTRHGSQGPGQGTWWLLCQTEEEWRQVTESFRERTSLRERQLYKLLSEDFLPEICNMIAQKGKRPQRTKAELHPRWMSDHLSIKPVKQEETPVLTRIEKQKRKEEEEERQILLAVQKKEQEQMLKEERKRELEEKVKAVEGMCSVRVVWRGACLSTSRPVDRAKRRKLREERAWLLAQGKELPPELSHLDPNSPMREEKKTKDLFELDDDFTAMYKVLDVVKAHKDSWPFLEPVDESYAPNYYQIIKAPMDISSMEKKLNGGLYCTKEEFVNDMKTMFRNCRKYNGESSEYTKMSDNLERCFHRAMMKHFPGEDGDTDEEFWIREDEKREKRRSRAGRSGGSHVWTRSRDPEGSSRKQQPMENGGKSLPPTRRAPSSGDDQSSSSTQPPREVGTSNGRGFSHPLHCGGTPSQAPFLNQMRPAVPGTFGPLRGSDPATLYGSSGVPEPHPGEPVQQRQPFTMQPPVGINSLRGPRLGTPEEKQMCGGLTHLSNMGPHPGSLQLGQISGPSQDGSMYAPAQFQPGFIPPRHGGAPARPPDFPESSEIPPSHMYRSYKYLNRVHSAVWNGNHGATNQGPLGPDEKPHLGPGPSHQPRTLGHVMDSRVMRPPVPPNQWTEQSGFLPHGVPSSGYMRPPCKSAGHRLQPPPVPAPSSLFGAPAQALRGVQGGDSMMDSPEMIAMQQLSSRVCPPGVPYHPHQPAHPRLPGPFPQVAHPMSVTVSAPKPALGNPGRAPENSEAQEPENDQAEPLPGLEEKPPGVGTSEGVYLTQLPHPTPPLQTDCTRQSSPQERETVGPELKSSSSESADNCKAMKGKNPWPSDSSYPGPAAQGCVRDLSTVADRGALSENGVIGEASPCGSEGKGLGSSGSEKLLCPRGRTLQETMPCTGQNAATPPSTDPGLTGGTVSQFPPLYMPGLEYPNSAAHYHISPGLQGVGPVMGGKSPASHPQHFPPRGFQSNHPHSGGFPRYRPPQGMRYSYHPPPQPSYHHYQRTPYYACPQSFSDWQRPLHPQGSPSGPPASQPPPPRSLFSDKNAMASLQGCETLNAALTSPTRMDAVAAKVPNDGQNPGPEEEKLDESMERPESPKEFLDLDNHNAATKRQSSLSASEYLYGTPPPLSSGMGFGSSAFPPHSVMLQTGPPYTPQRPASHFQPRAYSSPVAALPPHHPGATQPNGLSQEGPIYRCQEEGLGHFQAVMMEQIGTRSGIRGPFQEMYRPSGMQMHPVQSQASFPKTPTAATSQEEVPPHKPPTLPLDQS
T14 sequence (P25440 348-455 limits assumed): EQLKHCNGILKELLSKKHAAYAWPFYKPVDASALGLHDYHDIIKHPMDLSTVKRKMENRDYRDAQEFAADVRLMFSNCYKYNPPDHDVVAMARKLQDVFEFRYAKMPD
T1 sequence (Q9NSI6 1310-1430 limits assumed): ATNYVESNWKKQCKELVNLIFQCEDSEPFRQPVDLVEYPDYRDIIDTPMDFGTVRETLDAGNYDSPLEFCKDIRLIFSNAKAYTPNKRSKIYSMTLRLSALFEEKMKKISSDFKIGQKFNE
T2 sequence (P25440 71-194 limits assumed): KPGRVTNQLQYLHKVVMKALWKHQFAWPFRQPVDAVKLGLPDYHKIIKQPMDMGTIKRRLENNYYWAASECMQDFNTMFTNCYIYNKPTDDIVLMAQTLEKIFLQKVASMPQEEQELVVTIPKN
T15 sequence (Q8IZX4 1517-1654 limits assumed): as the sequence (P21675 1519-1656 limits assumed) above, with V46M, M51V, V102I, L107I counted along it

For `CO[C@H]1CC[C@H](n2c([C@@H]3CCCC(=O)N3c3ccc(F)c(F)c3)nc3cc(-c4c(C)noc4C)ccc32)CC1` [CCS1477], the remaining binding at 1 µM is 14% in test [1]; 3.5% in test [2]; 82% in [3]; 88% in test [4]; 39% in test [5]; 3.3% in test [8]. In addition, the remaining binding at 1 µM is 66% in test [9]; 78% in [10]; 100% in test [12]; 1.6% in test [13]; 69% in test [14]; 57% in test [15]. In addition, the remaining binding at 1 µM in [16] was 80%. For the same compound, the “ΔTm (°C)” value in test [6] (DSF thermal shift vs DMSO, EP300 bromodomain, Fig 2B) came out at 18.3 °C; in test [7] (DSF thermal shift vs DMSO, BRD4-BD1, Fig 2B), 6.7 °C. Also, the “∆Tm (°C) EP300” value in test [6] (setting [17]) worked out at 18.3 ± 0.2 °C. The “ΔTm (°C) EP300” value in test [6] (Figure 3B, DSF, EP300) amounted to 18.3 °C. Further, the “∆Tm (°C) BRD4-1” value in test [7] (setting [17]) is 6.7 ± 0.16 °C and 6.7 °C. For the same compound, the “MYC gene expression and protein levels” value in test [11] was “loss of MYC gene expression and protein levels”.
